The values below come from patent US10632137B2, “Composition containing ivermectin for exterminating Clavinema mariae infection on Sebastes schlegeli” (REPUBLIC OF KOREA (National Institute of Fisheries Science), priority 2017, dated 2020).

Series [1] has as its system Clavinema mariae. The series can be described thus: In vivo killing (antiparasitic) effect in Sebastes schlegeli naturally infected with Clavinema mariae. The method, then: 500 Sebastes schlegeli (116±17 g, 20±9 cm) on the west coast region of Korea were purchased and were allowed to habituate at a water temperature of 18.5 to 21° C. in a sea water tank for one week. Since the Sebastes schlegeli infected with Clavinema mariae is able to be confirmed by visual inspection, the Sebastes schlegeli was anesthetized with MS-222, and only the Sebastes schlegeli infected with Clavinema mariae was screened by visual inspection and used for clinical examination.

Series [2] deals with Sebastes schlegeli. The series can be described thus: Mortality (death of fish) of treated Sebastes schlegeli.
Source text: For the oral administration, a predetermined amount of each candidate material was mixed with blended powder feed to prepare a feed pellet, the Sebastes schlegeli was anesthetized, and the feed pellet was inserted up to the stomach with tweezers (FIG. 2). […] After 2 weeks, all experimental fishes were anesthetized with MS-222, and Clavinema mariae was extracted with tweezers to confirm the death. The control group was anesthetized, and then only feed pill to which the drug is not added was orally administered thereto.
For this purpose, 10 Sebastes schlegeli infected with Clavinema mariae were divided for each experimental group, and when two weeks passed after the Ivermectin was administered a total of 1 to 4 times daily or every 2 to 4 days while changing an oral administration concentration from 1 to 18 ppm, the antiparasitic effect and the mortality of the Clavinema mariae were observed.
Series [3] relates to Clavinema mariae. Kind of series: organism not typed. The settings on record: for Viability of Clavinema mariae (Dead %/Survived): after 1 hour; for Antiparasitic effect of Clavinema mariae in vitro compared with the recommended concentration: in vitro killing concentration versus recommended concentration of Table 3; for Killing Concentration (ppm): in vitro, Clavinema mariae in PBS, 1 hour. An excerpt: Candidate materials of a medicine for exterminating Clavinema mariae infection on Sebastes schlegeli were screened by examining various documents (Table 1). […] From the Sebastes schlegeli naturally infected with Clavinema mariae, the Clavinema mariae was carefully removed with tweezers, preserved in PBS, and directly exposed to nine candidate materials at various concentrations to evaluate the antiparasitic effect. […] However, after being killed, the movement disappears, and thus whether it is dead or not is able to be easily determined by observing whether it moves or not. Among the nine candidate materials, Febendazole, Pyrantel, Levamisole, Piperazine, Ivermectin, Trichlorfon, and Praziqantel were purchased from Sigma Aldrich (USA), and hydrogen peroxide and formalin solution were purchased from Junsei (Japan). Among the candidate materials, a poorly soluble compound, Febendazole, was dissolved in 100% ethanol and diluted with PBS to be used. Piperazine and Ivermectin were dissolved in dimethylsulfoxide (DMSO) and diluted with PBS to be used.
Clavinema mariae was extracted from Sebastes schlegeli (average weight: 150 g) cultivated on the west coast of Cheonsu Bay area (FIG. 1), 2 ml of each candidate material diluted with PBS to have each concentration was dispensed into a 6-well plate. Ten (10) living Clavinema mariae were placed in each well, and viability thereof was confirmed after 1 hour (FIG. 2).

The subject of series [4] is Sebastes schlegeli. The series can be described thus: Histological analysis (H&E) of internal organs after Ivermectin oral administration. To be noted: for hepatocyte (liver histology): oral, 4 times, one week after last administration. The class given is in vivo. The method, then:
Ivermectin was orally administered to Sebastes schlegeli according to dosing concentrations, dosing times, and dosing intervals described in Table 6, and after one week from the last oral administration, histological analysis of internal organs was performed. The histological analysis was performed by fixing the liver, kidney, spleen and gill of the experimental fish with 10% neutral formalin, followed by dehydration and paraffin embedding, and the cut tissues were stained with hematoxylin-eosin (H & E) and examined. As a result of histopathological examination, the spleen, kidney, and gill except the liver were normal in all tissues as compared with the control group. […] Therefore, it was confirmed that administration of 1 ppm of Ivermectin 4 times daily or every 2 to 3 days or administration of 2 ppm of Ivermectin every 2 to 3 days was the most preferable administration method in view of stability.

[5] abbreviates: 1 h, read-out: Viability of Clavinema mariae (Dead %/Survived).
Where [6] appears, read: oral, 5 ppm, 1 administration, after 2 weeks.
[7] abbreviates: at the concentrations shown in Table 4, once, after 2 weeks.
[8] abbreviates: medicated bath, 50 ppm, 10 minutes, 1 bath, after 2 weeks.
The mark [9] stands for this setting: medicated bath, 50 ppm, 10 minutes, 1 bath, observed for 2 weeks.

Entries after “also recorded” stand apart in the source; their conditions may differ.

With Ivermectin, the “Time until the spot where the pus is formed disappeared and was completely cured” value with Clavinema mariae [1] (oral, 1 ppm once) is ≤ 6 weeks. Further, the “Antiparasitic effect against Clavinema mariae on Sebastes schlegeli” value (from here on “Antiparasitic effect … on Sebastes schlegeli”) in the series with Clavinema mariae [1] (oral, 1 ppm once, after two weeks) was “some individuals had pus in a spot infected with the Clavinema mariae, and showed the antiparasitic effect”. The “Killing Effect (%)” value with Clavinema mariae [1] (oral, 1 ppm, 1 administration, after 2 weeks) was determined as 20%; in the series on Clavinema mariae [1] (oral, 1 ppm, 4 times, everyday, after two weeks), 100%; in the series on Clavinema mariae [1] (oral, 1 ppm, 4 times, intervals 2-3 days, after two weeks), 100%; with Clavinema mariae [1] (oral, 2 ppm, 4 times, everyday, after two weeks), 100%; in the series on Clavinema mariae [1] (oral, 2 ppm, 4 times, intervals 2-3 days, after two weeks), 100%; in the series with Clavinema mariae [1] (oral, 3 ppm, 2 times, everyday, after two weeks) it was 100%. For the same compound, the “Killing Effect (%)” value in the series with Clavinema mariae [1] (oral, 3 ppm, 2 times, interval 3 days, after two weeks) is recorded as 100%; with Clavinema mariae [1] (oral, 4 ppm, 2 times, everyday, after two weeks), 100%; with Clavinema mariae [1] (oral, 5 ppm, 2 times, everyday, after two weeks), 100%; with Clavinema mariae [1] (oral, 6 ppm, 2 times, interval 4 days, after two weeks), 100%. Moreover, the Nematode antiparasitic effect in the series on Clavinema mariae [1] (oral, 1 to 2 ppm, 4 times) amounted to 100%. For the same compound, the “State of the infection area after 6 weeks” value in the series on Clavinema mariae [1] (oral, 1 to 2 ppm, 4 times, after 6 weeks) is “the infection area was cleanly treated”. In addition, the “Death of fish (%)” value is listed as 0% with Sebastes schlegeli [2] (oral, 1 ppm, 1 administration, observed for 2 weeks); 0% in the series with Sebastes schlegeli [2] (oral, 1 ppm, 4 times, everyday); 0% in the series on Sebastes schlegeli [2] (oral, 1 ppm, 4 times, intervals 2-3 days); 20% with Sebastes schlegeli [2] (oral, 2 ppm, 4 times, everyday); 0% with Sebastes schlegeli [2] (oral, 2 ppm, 4 times, intervals 2-3 days); 60% with Sebastes schlegeli [2] (oral, 3 ppm, 2 times, everyday). Moreover, the “Death of fish (%)” value in the series with Sebastes schlegeli [2] (oral, 3 ppm, 2 times, interval 3 days) was 20%; with Sebastes schlegeli [2] (oral, 4 ppm, 2 times, everyday), 60%; with Sebastes schlegeli [2] (oral, 5 ppm, 2 times, everyday), 30%; with Sebastes schlegeli [2] (oral, 6 ppm, 2 times, interval 4 days), 70%; with Sebastes schlegeli [2] (oral, 18 ppm, 1 time), 100%. The “Behaviour and death of Sebastes schlegeli” value in the series with Sebastes schlegeli [2] (oral, 2 ppm, 4 times) is “some Sebastes schlegeli were sitting on the bottom and died”. Moreover, the “Death of Sebastes schlegeli” value with Sebastes schlegeli [2] (oral, 3 ppm or more) is given as “death occurred after being administered 2 times”. Further, the “Viability of Clavinema mariae (Dead %/Survived)” value (shortened to “Viability … (Dead %/Survived)”) in the series with Clavinema mariae [3] (0.001 ppm in PBS) was “Survived”; in the series with Clavinema mariae [3] (0.01 ppm in PBS) it was “Dead (100%)”; in the series on Clavinema mariae [3] (0.05 ppm in PBS), “Dead (100%)”; with Clavinema mariae [3] (0.5 ppm in PBS), “Dead (100%)”. Besides, the “Antiparasitic effect of Clavinema mariae in vitro compared with the recommended concentration” value in the series with Clavinema mariae [3] is on record as “at a lower concentration than the recommended concentration”. The “Killing Concentration (ppm)” value in the series on Clavinema mariae [3] was 0.001-0.01 ppm. Also, in the series on Sebastes schlegeli [4] (all regimens of Table 6, compared with the control group), the “Histopathological examination of spleen, kidney and gill” value is “normal”. Also, the “hepatocyte (liver histology)” value in the series on Sebastes schlegeli [4] (1 ppm, 2-3 days) is reported as “Abnormality of the liver tissue was not confirmed; also recorded: Normal”; in the series on Sebastes schlegeli [4] (1 ppm, everyday), “Abnormality of the liver tissue was not confirmed; also recorded: Normal”; in the series on Sebastes schlegeli [4] (2 ppm, 2-3 days), “Abnormality of the liver tissue was not confirmed; also recorded: Normal”; in the series with Sebastes schlegeli [4] (2 ppm, everyday), “hepatocyte metamorphosis, vacuolar formation”.
As to `O=C(C1CCCCC1)N1CC(=O)N2CCc3ccccc3C2C1` (centres unmarked) [Praziquantel], in the series on Clavinema mariae [3] (setting [5]), the mortality at 800 ppm was 100% and the mortality at 1600 ppm was 100%. Also, in the series on Clavinema mariae [3], the “Antiparasitic effect of Clavinema mariae in vitro compared with the recommended concentration” value is given as “did not show the antiparasitic effect of Clavinema mariae at a concentration 2000 times higher than the recommended concentration” and the “Killing Concentration (ppm)” value was 400-800 ppm.
As to `COC(=O)Nc1nc2ccc(Sc3ccccc3)cc2[nH]1` [Fenbendazole], the “Killing Effect (%)” value in the series with Clavinema mariae [1] (setting [6]) was determined as 0%; in the series with Clavinema mariae [1] (oral, 15 ppm, 1 administration, after 2 weeks), 0%. In addition, the “Death of fish (%)” value is 0% in the series with Sebastes schlegeli [2] (oral, 5 ppm, 1 administration, observed for 2 weeks) and 0% in the series on Sebastes schlegeli [2] (oral, 15 ppm, 1 administration, observed for 2 weeks). In addition, the “Viability … (Dead %/Survived)” value in the series on Clavinema mariae [3] (1.7 ppm in PBS) and in the series with Clavinema mariae [3] (5 ppm in PBS) was “Survived” each time. In addition, the mortality at 15 ppm in the series on Clavinema mariae [3] (setting [5]) worked out at 100%. The mortality at 30 ppm in the series with Clavinema mariae [3] (setting [5]) stood at 100%. Moreover, the “Killing Concentration (ppm)” value with Clavinema mariae [3] is 5-15 ppm.
Consider `OO` [Hydrogen peroxide], for which the “Antiparasitic effect … on Sebastes schlegeli” value with Clavinema mariae [1] (setting [7]) is “could not be confirmed to have the antiparasitic effect”. Further, the “Killing Effect (%)” value in the series on Clavinema mariae [1] (medicated bath, 10 ppm, 10 minutes, 1 bath, after 2 weeks) was 0%. Besides, in the series on Clavinema mariae [1] (setting [8]), the “Killing Effect (%)” value came to 0%. Besides, the “Death of fish (%)” value in the series with Sebastes schlegeli [2] (medicated bath, 10 ppm, 10 minutes, 1 bath, observed for 2 weeks) turned out to be 0%. Further, in the series on Sebastes schlegeli [2] (setting [9]), the “Death of fish (%)” value turned out to be 0%. Also, in the series on Clavinema mariae [3] (setting [5]), the mortality at 5 ppm stood at 100%, the mortality at 10 ppm stood at 100%, the mortality at 14 ppm was 100% and the mortality at 280 ppm stood at 100%. For the same compound, in the series with Clavinema mariae [3], the “Antiparasitic effect of Clavinema mariae in vitro compared with the recommended concentration” value is listed as “at a lower concentration than the recommended concentration” and the “Killing Concentration (ppm)” value is on record as <5 ppm.
As for `CN1CCCN=C1/C=C/c1cccs1` [Pyrantel], the “Killing Effect (%)” value in the series on Clavinema mariae [1] (oral, 2.7 ppm, 1 administration, after 2 weeks) was determined as 0%. Also, the “Death of fish (%)” value in the series with Sebastes schlegeli [2] (oral, 2.7 ppm, 1 administration, observed for 2 weeks) came out at 0%. In addition, in the series on Clavinema mariae [3] (setting [5]), the mortality at 0.06 ppm was determined as 20%, the mortality at 0.09 ppm came out at 100% and the mortality at 0.9 ppm was 100%. Moreover, in the series on Clavinema mariae [3], the “Antiparasitic effect of Clavinema mariae in vitro compared with the recommended concentration” value is “at a lower concentration than the recommended concentration” and the “Killing Concentration (ppm)” value is 0.02-0.06 ppm.
For `c1ccc([C@H]2CN3CCSC3=N2)cc1` [Levamisole], the “Killing Effect (%)” value with Clavinema mariae [1] (oral, 2.5 ppm, 1 administration, after 2 weeks) came out at 0%. Also, in the series with Clavinema mariae [1] (setting [6]), the “Killing Effect (%)” value turned out to be 0%. Moreover, in the series on Clavinema mariae [3] (setting [5]), the mortality at 0.5 ppm turned out to be 20%, the mortality at 1 ppm came out at 100% and the mortality at 1.7 ppm stood at 100%. Also, in the series with Clavinema mariae [3], the “Antiparasitic effect of Clavinema mariae in vitro compared with the recommended concentration” value is “at a lower concentration than the recommended concentration”.
With `C1CNCCN1` [Piperazine], in the series on Clavinema mariae [1] (oral, 100 ppm, 1 administration, after 2 weeks), the “Killing Effect (%)” value is reported as 0%. Further, the “Killing Effect (%)” value with Clavinema mariae [1] (oral, 300 ppm, 1 administration, after 2 weeks) came out at 0%. The “Death of fish (%)” value with Sebastes schlegeli [2] (oral, 100 ppm, 1 administration, observed for 2 weeks) turned out to be 0%. Moreover, the “Death of fish (%)” value in the series with Sebastes schlegeli [2] (oral, 300 ppm, 1 administration, observed for 2 weeks) worked out at 30%. Also, in the series with Clavinema mariae [3] (setting [5]), the mortality at 50 ppm was 100%, the mortality at 75 ppm was determined as 100% and the mortality at 100 ppm came to 100%. Moreover, in the series on Clavinema mariae [3], the “Antiparasitic effect of Clavinema mariae in vitro compared with the recommended concentration” value is given as “at a lower concentration than the recommended concentration” and the “Killing Concentration (ppm)” value was 33-50 ppm.
As for `C=O` [Formaline, Formalin], the “Antiparasitic effect … on Sebastes schlegeli” value with Clavinema mariae [1] (setting [7]) is “could not be confirmed to have the antiparasitic effect”. The “Killing Effect (%)” value in the series on Clavinema mariae [1] (setting [8]) is 0%. For the same compound, in the series on Clavinema mariae [1] (medicated bath, 200 ppm, 10 minutes, 1 bath, after 2 weeks), the “Killing Effect (%)” value is reported as 0%. For the same compound, in the series with Sebastes schlegeli [2] (setting [9]), the “Death of fish (%)” value is recorded as 0%. For the same compound, the “Death of fish (%)” value in the series on Sebastes schlegeli [2] (medicated bath, 200 ppm, 10 minutes, 1 bath, observed for 2 weeks) worked out at 0%. Besides, in the series on Clavinema mariae [3] (setting [5]), the mortality at 25 ppm stood at 100%, the mortality at 50 ppm is 100%, the mortality at 70 ppm came to 100% and the mortality at 350 ppm came to 100%. In the series with Clavinema mariae [3], the “Antiparasitic effect of Clavinema mariae in vitro compared with the recommended concentration” value is reported as “at a lower concentration than the recommended concentration” and the “Killing Concentration (ppm)” value is on record as 25 ppm.
With `COP(=O)(OC)C(O)C(Cl)(Cl)Cl` (centres unmarked) [Trichlorfon], in the series on Clavinema mariae [3] (2.5 ppm in PBS), the “Viability … (Dead %/Survived)” value is “Survived”. In the series with Clavinema mariae [3] (25 ppm in PBS), the “Viability … (Dead %/Survived)” value is reported as “Survived”. For the same compound, in the series on Clavinema mariae [3] (setting [5]), the mortality at 50 ppm was 100% and the mortality at 75 ppm was found to be 100%. In the series on Clavinema mariae [3], the “Antiparasitic effect of Clavinema mariae in vitro compared with the recommended concentration” value was “showed the antiparasitic effect at a very high concentration” and the “Killing Concentration (ppm)” value is reported as 25-50 ppm.
